The source of these data is patent publication US10426772B2, “Use of ergot alkaloids as an anthelmintic agent” (priority 2016, dated 2019).

The target in one assay is T1, Hs.5HT7R (Homo sapiens, UniProt P34969).
T1 construct: host or cells: HEK293 (ATCC CRL-1573.3), transient, pCS2(−), co-transfected with GloSensor
Briefly: GloSensor cAMP assay, HEK293 cells transiently transfected with Hs.5HT7R. Format: cell-based. As to the method: (§1) HEK293 cells (ATCC CRL-1573.3) were cultured in DMEM supplemented with 10% fetal bovine serum (FBS), penicillin (100 units/mL), streptomycin (100 μg/mL), and L-glutamine (290 μg/mL). Cells were transiently transfected (ViaFect, Promega) as per the manufacturer's protocol at a density of 2×10^6 cells per T-25 cell-culture flask. Cells were transfected with plasmids encoding GloSensor (Promega) and either Sm.5HTR, (Smp_126730, GenBank accession number KF444051.1) or Sm.5HTRL (KX150867), both GPCRs being codon optimized for mammalian expression, or Hs.5HT7a (GenBank accession number NM_000872.4, R&D Systems) subcloned into pCS2(−). Cell culture reagents were from Invitrogen. Epitope tagged constructs were used to verify expression, and untagged constructs used for all luminescence assays.
(§2) For assays performed on adherent cells, HEK-293 cells were transferred one day post transfection to 96 well, solid white plates (Corning, cat #3917) coated with 0.01% poly-L-lysine (Sigma Aldrich) at a density of 5×10^4 cells/well in DMEM supplemented with 1% dialyzed FBS (Gibco). After overnight culture (37° C./5% CO2), media was decanted and replaced with 100 μL/well HBSS supplemented with 0.1% BSA, 20 mM HEPES (pH 7.4) and GloSensor™ reagent. Plates were allowed to equilibrate at room temperature for two hours prior to performing luminescence assays (GloMax-Multi Detection System plate reader, Promega). Conditions for individual assays were described as per figure legends. The standard assay to detect changes in cAMP utilized the F22 sensor in media supplemented with IBMX (200 μM). Ligands were added at a concentration of 20× per well for experiments (i.e., 5 μl of drug solution added to 100 μL of cells). […] For the resazurin reduction assay for cellular viability, cells were incubated with resazurin (final concentration, 10 μM) and tested ligands with fluorescence measurements (560 nm excitation/590 nm emission) made at 1.5 hours intervals.
(§3) The protocol for screening is shown schematically in FIG. 5A. HEK293 cells transiently transfected with either the human 5HT7 receptor (Hs.5HT7R) or the schistosome receptor (Sm.5HTR) were exposed to test ligands in a 96-well plate format. […] Luminescence was then read at a fixed time point (t=60 minutes, FIG. 5A). Hits were assigned as compounds that evoked a ≥50% decrease in luminescence output at the fixed time sampling point (FIG. 5B).
A general note: cAMP levels reflect the balance of adenylyl cyclase and phosphodiesterase activity.

In a further assay the test system is adult schistosomes. Briefly: Adult schistosome mobility assay (Example 1). In kind it is cell-based, Schistosoma mansoni.
Assay [1] concerns the target Sm.5HTR (Schistosoma mansoni, UniProt G4V5G4). Format: cell-based. The procedure:
as §1, §2, §3

In the next assay the target is Sm.5HTRL (Schistosoma mansoni, UniProt A0A173FEI8). Briefly: GloSensor cAMP assay, HEK293 cells transiently transfected with Sm.5HTRL. In kind it is cell-based. Conditions: antagonists 10 μM; 5-HT EC80 dose 0.8 μM (FIG. 8). The procedure:
as §1, §2

Assay [2] concerns S. mansoni schistosomules. Briefly: Schistosomule contractility assay. Format: cell-based. The following applies: Schistosoma mansoni, read-out: IC50, inhibition of 5-HT evoked contractions. As to the method: FIGS. 14A-14F. […] Effects of selected ligands on schistosomules. […] A contractile cycle is defined when a deviation of ≥20% of the average body length (dashed lines) occurs.
Biomphalaria glabrata (M-line) snails exposed to Schistosoma mansoni miracidia (Strain PR-1) were obtained from BEI Resources (Cat. number NR-21961) and cercaria were shed following exposure to light (1.5 hours). Cercaria were manually transformed into schistosomula by vortexing (3×45 seconds, each separated by 3 minutes on ice) and tails were removed by gradient centrifugation (24 mL Percoll, 4 mL 10×EMEM, 1.5 ml penicillin-streptomycin, 1 mL of 1M HEPES in 0.85% NaCl, 9.5 ml distilled water) at 500 g/15 minutes at 4° C. Supernatant containing tails was discarded, and schistosomules were resuspended in Basch media and incubated (37° C., 5% CO2) overnight before conducting mobility assays. For contractility experiments, somules were incubated in 5-HT free Basch media to resolve a basal contractility rate. […] Schistosomules were incubated in 24 well plates (about 200 schistosomules/0.5 mL media per well) for 30 minutes (37° C./5% CO2) prior to acquiring videos of schistosome movement (1 minute recordings/well) using a Nikon Coolpix 5700 camera affixed to a Nikon Eclipse TS100 microscope (10× objective). The WrmTrck plugin for ImageJ was used to quantify worm mobility (El-Shehabi et al., 2012). Briefly, the major axis of each schistosomule body length was extracted from the raw output of WrmTrck and an average length was determined for the duration of the recording. Contractions were quantified by determining the number of episodes during which the worm body length deviated from the average by over 20%. S. mansoni protocols were approved by the Iowa State University Institutional Biosafety Committee.

Assay [3] has as its system S. mansoni. Briefly: Curative efficacy against schistosome infection in mice. Format: in vivo, Schistosoma mansoni. Conditions: one week. As to the method: Assays testing the curative efficacy of compounds against schistosome infection were performed on mice 6 weeks after exposure to cerceria. Drugs were dosed as follows. Ergotamine (95 mg/kg) was solubilized in 50 μL DMSO and diluted in 200 μL trappsol-saline and delivered by intraperitoneal injection twice a day for one week. Praziquantel (50 mg/kg) was similarly solubilized and injected intraperitoneally once a day for one week. The negative control cohort was given twice daily injections of DMSO (50 μL) added to 200 μL trappsol-saline solution. Mice were weighed and euthanized at 49 days post infection. Worms were harvested and counted as in the hepatic shift assay. Spleen and livers were weighed, and a segment of intestine was excised from the most distal region of the rectum to 10 cm above the cecum. The small and large intestines were separated by cutting immediately above and below the cecum. Each was cut lengthwise to expose the lumen and thoroughly washed in NaCl (1.2%) to remove excrement. Intestines were laid flat with the intestinal mucosa facing upwards and clamped between two glass plates to allow visual inspection of eggs using a stereo microscope.
Mice were injected with vehicle control (dmso), the current frontline anthelmintic (praziquantel) or ergotamine twice daily for one week at starting 42 days post infection.
All animals were sacrificed 49 days post infection, and worms were harvested by dissection of the mesenteric vasculature, portal vein and liver. […] Schistosomes lay large numbers of eggs within the host mesenteric system, and these progress through stages of development over approximately 5 days which can be scored looking at samples of the intestinal mucosa (Pellegrino et al., 1965). Therefore, it is possible to visually determine whether drug treatment has arrested parasite egg laying by observing a lack of developing eggs. Sections of both the large and small intestines were examined and eggs were manually counted and scored according to developmental stage (representative stages of embryo development shown in FIG. 20H-I, top).

Assay [4] deals with S. mansoni. Kind of assay: Hepatic shift assay in infected mice. Format: in vivo, Schistosoma mansoni. Conditions: intraperitoneal, ergotamine 95, praziquantel 100, methylergometrine 50, lisuride 10, dihydroergotoxine 60 mg/kg, euthanized three hours later. The procedure:
Female Swiss Webster mice were exposed to 200 S. mansoni cerceria (NMRI strain) at between 4-6 weeks old. For hepatic shift assays, infections were allowed to mature to 7 weeks, at which point mice were given test compounds by intraperitoneal injection and euthanized […]. Compounds were solubilized in 50 μL DMSO, and diluted in 200 μL 5% w/v trappsol (Cyclodextrin Technologies Development, THPB-p-31 g)+saline (NaCl 0.9%) solution. Immediately after being euthanized, mice were dissected to remove the liver from the portal vein, and the number of worms recovered from the portal vein, mesenteries and liver was recorded for each mouse.
Several experiments using a murine model of schistosomiasis were carried out in order to test the anthelmintic efficacy of Sm.5HTR ligands in vivo. First, the acute effect of drugs were assessed using a “heptic-shift” assay; mature parasites normally reside within the mesenteric vasculature, and upon exposure to anthelmintics they dislodge and are swept to the liver^12,13 where they may be cleared from the host^14 (FIG. 20B-F).
Given that the current anthelmintic therapy, praziquantel, disrupts worms and results in a rapid shift from the mesenteric vasculature to the liver (Melhorn et al., 1981) (FIG. 20B-F), it was hypothesized that Sm.5HTR ligands that disrupt parasite movement would cause a similar hepatic shift. Compounds were delivered by intraperitoneal injection and mice were euthanized three hours later in order to quantify the number of worms found in the mesentaries, portal vein or liver.

The target of assay [5] is Sm.5HTR (Schistosoma mansoni, UniProt A0A173FEI8). Kind of assay: cell-based. Conditions: HEK293; agonist read, 45 minutes; read-out: Sm.5HTR Emax. As to the method: HEK293 cells (ATCC CRL-1573.3) were cultured in growth media consisting of DMEM supplemented with GlutaMAX (Gibco cat #10566016)+10% heat inactivated fetal bovine serum and penicillin-streptomycin (100 units/mL, ThermoFisher). Stable cell lines for the pGloSensor-22F cAMP Plasmid (Promega) and schistosome 5HTRs in pcDNA3.1(−) were selected with hygromycin (200 μg/mL) and G418 (400 μg/mL). The correct identity of each stably expressed sequence was verified by isolating total RNA from each stable line (TRIzol Reagent, Ambion) and amplifying the sequence of interest with gene specific primers flanking the 5′ and 3′ regions of the cds (SuperScript® III One-Step RT-PCR System, Invitrogen). PCR products were ligated into a TA cloning vector (pGEM-T Easy, Promega) and sequenced.
Chain of Sm.5HTR (Schistosoma mansoni, UniProt A0A173FEI8) (A0A173FEI8 entry or part of it): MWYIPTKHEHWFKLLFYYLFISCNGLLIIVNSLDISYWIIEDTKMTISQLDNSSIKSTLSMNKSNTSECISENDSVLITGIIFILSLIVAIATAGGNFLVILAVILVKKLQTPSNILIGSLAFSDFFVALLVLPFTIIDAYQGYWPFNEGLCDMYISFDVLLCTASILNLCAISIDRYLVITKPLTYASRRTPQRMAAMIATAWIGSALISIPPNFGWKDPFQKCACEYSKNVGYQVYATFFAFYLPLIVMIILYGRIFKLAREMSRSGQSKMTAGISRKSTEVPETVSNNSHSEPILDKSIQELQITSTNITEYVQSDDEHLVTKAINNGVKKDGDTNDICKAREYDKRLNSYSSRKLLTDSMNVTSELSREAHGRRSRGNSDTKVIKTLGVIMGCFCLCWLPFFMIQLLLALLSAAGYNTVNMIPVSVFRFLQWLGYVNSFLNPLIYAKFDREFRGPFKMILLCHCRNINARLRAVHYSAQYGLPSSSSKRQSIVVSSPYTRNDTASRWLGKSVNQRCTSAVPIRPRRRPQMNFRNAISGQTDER
HEK293 lines stably expressing both the 22F cAMP sensor and Sm.5HTR were cultured in growth media supplemented with 10% dialyzed FRS. For cAMP assays in 96 well format, cells cultured in T-75 flasks were trypsinized (TrypLE Express, Gibco) and plated in solid white 96 well plates (Costar cat #3917) the day prior to assay at a density of 2.5×10^4 cells/well. The following day media was removed and replaced with assay buffer consisting of HBSS buffered with HEPES (20 mM, pH 7.4)+BSA (0.1% w/v) and D-luciferin sodium salt (1 mg/mL, Gold Biotechnology). Plates were equilibrated at room temperature for 1 hour, at which point 3-Isobutyl-1-methylxanthine (IBMX 200 μM, Sigma Aldrich) was added. Plates were equilibrated a further 30 minutes prior to test compound addition. […] Readings performed in 384 well format were modified so that cells were assayed in suspension. Cells were grown to 70% confluence in T-75 flasks, trypsinized and pelleted (300 RCF×5 minutes). Media was removed and cells were resuspended in 25 mL assay buffer supplemented with IBMX (200 μM). A 96 channel semi-automated pipet (Eppendorf epMotion 96) delivered 55 μL of cell suspension per well (5000 cells/well) into solid white 384 plates (Corning 3574).

Chain of Sm.5HTR (Schistosoma mansoni, UniProt G4V5G4) (G4V5G4 entry or part of it): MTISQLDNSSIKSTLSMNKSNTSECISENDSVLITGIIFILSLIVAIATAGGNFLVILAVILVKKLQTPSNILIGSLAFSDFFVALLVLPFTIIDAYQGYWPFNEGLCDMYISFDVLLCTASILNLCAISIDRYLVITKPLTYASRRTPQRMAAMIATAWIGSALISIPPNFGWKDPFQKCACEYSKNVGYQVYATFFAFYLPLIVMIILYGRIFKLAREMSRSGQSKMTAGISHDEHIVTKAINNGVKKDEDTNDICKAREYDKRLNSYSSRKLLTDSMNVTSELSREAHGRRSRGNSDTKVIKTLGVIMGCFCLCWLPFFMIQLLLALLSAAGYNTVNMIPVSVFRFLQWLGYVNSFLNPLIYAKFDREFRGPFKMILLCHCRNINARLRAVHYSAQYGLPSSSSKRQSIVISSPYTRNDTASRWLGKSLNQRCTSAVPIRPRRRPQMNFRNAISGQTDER
T1 sequence (P34969 1-445 isoform P34969-2): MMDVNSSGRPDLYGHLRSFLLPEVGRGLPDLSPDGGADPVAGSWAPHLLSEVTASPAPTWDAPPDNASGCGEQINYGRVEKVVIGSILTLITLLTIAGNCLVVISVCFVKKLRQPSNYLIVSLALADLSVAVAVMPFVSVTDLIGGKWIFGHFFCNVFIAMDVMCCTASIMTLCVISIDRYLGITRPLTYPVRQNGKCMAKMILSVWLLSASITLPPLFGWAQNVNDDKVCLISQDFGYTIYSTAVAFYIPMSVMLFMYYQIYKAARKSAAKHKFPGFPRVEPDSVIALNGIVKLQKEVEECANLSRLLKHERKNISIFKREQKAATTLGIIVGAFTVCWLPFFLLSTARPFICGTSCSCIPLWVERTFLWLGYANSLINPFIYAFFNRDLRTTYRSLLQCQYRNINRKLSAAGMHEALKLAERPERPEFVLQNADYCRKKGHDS
Chain of Sm.5HTRL (A0A173FEI8 entry or part of it): as the sequence (A0A173FEI8 entry or part of it) above

As for `COc1cc2c(cc1OC)[C@@H]1Cc3ccc(OC)c(OC)c3CN1CC2` [rotundine], the “effect on Hs.5HT7” value on Hs.5HT7R (concentrations up to 50 μM) is recorded as “lacking any effect”. Also, the “potency (IC50) at Hs.5HT7R, lower right quadrant of FIG. 13” value on Hs.5HT7R (inhibition of cAMP generation) is on record as “supra-μM potency”. Further, in the assay on adult schistosomes (5-HT 100 μM, male and female worms (FIG. 15G-I)), the “effect on 5-HT stimulated movement of adult worms” value is reported as “inhibited the 5-HT evoked increases in worm movement”. Further, the “effect on basal movement of adult worms” value with adult schistosomes (no 5-HT, male and female worms (FIG. 15D-F)) is on record as “markedly inhibited worm movements at rest”. At Sm.5HTR [1] (antagonism of 5-HT evoked cAMP, FIGS. 7, 12, 13), the “selectivity Sm.5HTR versus Hs.5HT7R (IC50 (Hs.5HT7R)/IC50 (Sm.5HTR)), in words” value is reported as “clear selectivity for Sm.5HTR”. In addition, the “potency (IC50) at Sm.5HTR, lower right quadrant of FIG. 13” value at Sm.5HTR [1] (inhibition of cAMP generation) was “sub-μM potency”. The IC50 on Sm.5HTR [1] (read-out: IC50, antagonism of 5-HT evoked cAMP generation at Sm.5HTR, 5-HT at EC80, F22 sensor, IBMX) is 701 ± 207 nM; in assay [2], ≤ 1000 nM. Moreover, on Sm.5HTRL, the “inhibition of 5-HT evoked cAMP generation through Sm.5HTRL” value is listed as “inhibited 5-HT evoked cAMP generation through Sm.5HTRL”.

In the case of `O=C(C1CCCCC1)N1CC(=O)N2CCc3ccccc3C2C1` (stereo not shown) [PZQ, praziquantel], the “protection from liver and spleen enlargement” value with S. mansoni [3] (infected mice, praziquantel 50 mg/kg i.p. once a day) is “no significant protection from liver and spleen enlargement”. In the assay on S. mansoni [3] (mice, ergotamine 95 mg/kg twice a day, praziquantel 50 mg/kg once a day, i.p., versus vehicle control), the “decrease in intestinal egg counts” value was determined as 99%. Besides, on Sm.5HTR [1] (doses that would convey an antiparasitic effect, FIGS. 10A and E), the “modulation of Sm.5HTR receptor activity” value is reported as “did not reveal any modulation of receptor activity”. The “% of worm burden found in the liver” value in the assay with S. mansoni [4] turned out to be 68.8±14.1%.

As for `CC[C@@H](CO)NC(=O)[C@@H]1C=C2c3cccc4[nH]cc(c34)C[C@H]2N(C)C1` [methylergometrine], the “% of worm burden found in the liver” value with S. mansoni [4] was found to be 50.6±28.5%. For the same molecule, at Sm.5HTR [5], the maximal effect (Emax) was determined as 50 ± 17%.

Take `CCN(CC)C(=O)N[C@H]1C=C2c3cccc4[nH]cc(c34)C[C@H]2N(C)C1` [lisuride]: in the assay with S. mansoni [4], the “% of worm burden found in the liver” value was “no difference relative to control animals”.

Broadly, the Emax is the greatest response seen or fitted, relative to the assay's reference.
